System: Aβ secretion from CHO cells transfected with Swedish mutation Amyloid Precursor Protein (CHO-APPsw)
Experiment: Aβ secretion inhibition in CHO-APPsw cells, sandwich ELISA
Assay type: cell-based
Settings: CHO, read-out: Effect on Aβ Secretion (Concentration) (IC50)
Method: This is an […] assay designed to show the ability of test compounds to […]. CHO cells transfected with human AβPP bearing the Swedish mutation AβPP(CHO-AβPPsw) were treated with a farnesyl transferase inhibitor (FTI) (e.g., compounds from Table 1). The assay was carried out as follows:
CHO cells transfected with Swedish mutation Amyloid Precursor Protein (CHO-APPsw) were maintained in Dulbecco's Modified Eagle Medium (DMEM) media supplemented with nonessential amino acids (NEAA, Gibco-BRL Company) and 10% (v/v) heat inactivated Fetal Calf Serum (Hyclone Company), penicillin and streptomycin (Gibco-BRL).
The polyclonal antibodies were purified on a protein G-Sepharose column prior to use. Biotinylated monoclonal antibody 4G8 which recognizes amino acids 17-24 of Aβ (Senetek plc, St. Louis, Mo., USA) was used as the detection antibody. Alkaline phosphatase-conjugated strepavidin (Zymed Laboratories, San Francisco, Calif., USA) was used to bind the biotinylated detection antibody followed by Attophos (JBL Scientific, St. Luis Obispo, Calif., USA), the substrate for alkaline phosphatase. Fluorescence was measured using a Cytofluor plate reader (Perseptive Biosystems, Framingham, Mass., USA) set at 450 nm excitation and 560 emission. Synthetic Aβ40 and Aβ42 peptides used for standard curves were purchased from California Peptide (Napa, Calif., USA).

Structure (SMILES)	IC50 [µM]
O=C1CCCc2c1ccc(O[C@H](Cn1ccnc1)c1ccccc1)c2CNc1ccccc1 [Compound 8, (S) 6-(2-Imidazol-1-yl-1-phenyl-ethoxy)-5-phenylaminomethyl-3,4-dihydro-2H-naphthalen-1-one]	7.6
O=C1CCCc2c1ccc(O[C@H](Cn1ccnc1)c1ccccc1)c2CCc1ccc(F)cc1 [Compound 9, (S) 6-(2-Imidazol-1-yl-1-phenyl-ethoxy)-5-[2-(4-fluorophenyl)ethyl]-3,4-dihydro-2H-naphthalen-1-one]	4.5
CC(C)OCc1c(OC(Cn2ccnc2)c2ccccc2)ccc2c1CCCC2=O (centres unmarked) [Compound 7, 6-(2-Imidazol-1-yl-1-phenyl-ethoxy)-5-isopropoxymethyl-3,4-dihydro-2H-naphthalen-1-one]	37.9
O=C1CCCc2c1ccc(OC(Cn1ccnc1)c1ccccc1)c2CCc1ccncc1 (centres unmarked) [Compound 13, 6-(2-Imidazol-1-yl-1-phenyl-ethoxy)-5-(2-pyridin-4-yl-ethyl)-3,4-dihydro-2H-naphthalen-1-one]	11
O=C1CCCc2c1ccc(O[C@H](Cn1ccnc1)c1ccccc1)c2CS(=O)(=O)c1ccccc1 [Compound 10, (S) 5-Benzenesulfonylmethyl-6-(2-imidazol-1-yl-1-phenyl-ethoxy)-3,4-dihydro-2H-naphthalen-1-one]	25.4
O=C1CCCc2cc(O[C@@H](Cn3ccnc3)c3ccccc3)ccc21 [Compound 5, (R) 6-(2-Imidazol-1-yl-1-phenyl-ethoxy)-3,4-dihydro-2H-naphthalen-1-one]	1.5
O=C1CCCc2c1ccc(O[C@H](Cn1ccnc1)c1ccccc1)c2CCc1ccccc1 [Compound 1, (S) 6-(2-Imidazol-1-yl-1-phenyl-ethoxy)-5-phenethyl-3,4-dihydro-2H-naphthalen-1-one]	0.7
O=C1CCCc2c1ccc(OCCc1cncn1Cc1ccccc1)c2CCc1ccccc1 [Compound 15, 6-[2-(3-Benzyl-3H-imidazol-4-yl)-ethoxy]-5-phenethyl-3,4-dihydro-2H -naphthalen-1-one; trifluoro-acetate]	1.5
O=C1CCCc2c1ccc(O[C@H](Cn1ccnc1)c1ccccc1)c2CCc1ccccn1 [Compound 12, (S) 6-(2-Imidazol-1-yl-1-phenyl-ethoxy)-5-(2-pyridin-2-yl-ethyl)-3,4-dihydro-2H-naphthalen-1-one]	12

Same assay, conditions: CHO-APPsw cells, serum free media overnight at 37° C., secreted Aβ by sandwich ELISA; read-out: Effect on Aβ Secretion (Concentration) (IC50)

Structure (SMILES)	IC50 [µM]
O=C1/C(=C/c2cccs2)CCc2cc(OC(Cn3ccnc3)c3ccccc3)ccc21 (racemic) [Compound 3, E-(+/−)6-(2-Imidazol-1-yl-1-phenyl-ethoxy)-2-thiophen-2-ylmethylene-3,4-dihydro-2H-naphthalen-1-one]	4.5
O=C(CN(Cc1ccc(OCc2ccccc2)cc1)C(=O)[C@H](Cc1c[nH]cn1)NC(=O)OCc1ccccc1)NCCOCc1ccccc1 [Compound 19, (S) [1-{(4-Benzyloxy-benzyl)-[(2-benzyloxy-ethylcarbamoyl)-methyl]-carbamoyl}-2-(1H-imidazol-4-yl)ethyl]-carbamic acid benzyl ester]	10
O=C(O)CCC(Oc1ccc2c(c1CCc1ccccc1)CCCC2=O)c1ccccc1 (centres unmarked) [Compound 14, 4-(5-Oxo-1-phenethyl-5,6,7,8-tetrahydro-naphthalen-2-yloxy)-4-phenyl-butyric acid]	13.8
O=C1CCCc2c1ccc(S[C@H](Cn1ccnc1)c1ccccc1)c2CCc1ccccc1 [Compound 11, (S) 6-(2-Imidazol-1-yl-1-phenyl-ethylsulfanyl)-5-phenethyl-3,4-dihydro-2H-naphthalen-1-one]	1.5
Cc1ccc(CN(CC(=O)NCC2(c3ccccc3)CCC2)C(=O)[C@H](Cc2c[nH]cn2)NC(=O)OCc2ccccc2)cc1 [Compound 17, (S) [2-(1H-Imidazol-4-yl)-1-((4-methyl-benzyl)-{[(1-phenyl-cyclobutylmethyl)-carbamoyl]-methyl}-carbamoyl)-ethyl]-carbamic acid benzyl ester]	10
O=C1CCCc2cc(OCCc3c[nH]cn3)ccc21 [Compound 2, 6-[2-(1H-Imidazol-4-yl)-ethoxy]-3,4-dihydro-2H-naphthalen-1-one]	7.6
CC(C)(CNC(=O)CN(Cc1ccc(OCc2ccccc2)cc1)C(=O)[C@H](Cc1cnc[nH]1)NC(=O)OCc1ccccc1)c1ccccc1 [Compound 16, (S) [1-{(4-Benzyloxy-benzyl)-[(2-methyl-2-phenyl-propycarbamoyl)-methyl]-carbamoyl}-2-(3H-imidazol-4-yl)-ethyl]-carbamic acid benzyl ester]	50
O=C1CCC(c2ccccc2)c2cc(OC(Cn3ccnc3)c3ccccc3)ccc21 (racemic) [Compound 6, 6-(2-Imidazol-1-yl-1-phenyl-ethoxy)-4-phenyl-3,4-dihydro-2H-naphthalen-1-one racemic]	3.1
CN1C(=O)CC(c2cccc(Cl)c2)c2cc(C(Nc3cncn3C)c3ccc(Cl)cc3)ccc21 (centres unmarked) [Compound 18, 1-Methyl-4-(3-chlorophenyl)-6-[(4-chlorophenyl)-(1-methylimidazol-5-yl)aminomethyl]-2,3-dihydroquinolin-2-one]	6
O=C1CCCc2cc(OC(Cn3ccnc3)c3ccc(Cl)cc3)ccc21 (racemic) [Compound 4, 6-[1-(4-Chloro-phenyl)-2-imidazol-1-yl-ethoxy]-3,4-dihydro-2H-napththalen-1-one racemic]	25

Same assay, conditions: transfected CHO cells treated with 10 μM compound

Structure (SMILES)	fold decrease in secreted Aβ [fold]
O=C1CCCc2c1ccc(O[C@H](Cn1ccnc1)c1ccccc1)c2CCc1ccccc1 [Compound 1, (S) 6-(2-Imidazol-1-yl-1-phenyl-ethoxy)-5-phenethyl-3,4-dihydro-2H-naphthalen-1-one]	6.5

From patent US20040063770A1, “Method for treating Alzheimer's disease” (Warner-Lambert Company, priority 2000, published 2004)
